Like-named read-outs stand apart in the source and are kept apart here.
Key:
[1] = Pyrene fluorescence spectroscopy (micelle formation, CMC determination); format: physicochemical; settings: pyrene 7.5 µM
Procedure: Pyrene is a lipophilic fluorescent probe often used to determine the critical micellar concentration (CMC) of surfactants. Indeed, it has the interesting feature of being sensitive to the polarity of its environment and partitioning into micelles leading to an hyperchromicity. First, 40 mg of pyrene were dissolved into 10 mL of ethanol, this solution was diluted in water to achieve a stock solution with a concentration of 7.5 µM. This stock solution was used as solvent to prepare PS80 and NaHA solutions of different concentrations in triplicate. Fluorescence measurements were performed using a Varian Cary Eclipse fluorescence spectrophotometer and processed with the Cary Eclipse software version 1.1.132 (Agilent Technologies, Santa Clara, CA, USA). The data were acquired using an excitation wavelength of 230 nm with a 20 nm slit and by recording an emission scan from 350 to 450 nm with a 2.5 nm slit. Peaks 1 and 3, used to determine the fluorescence ratio I1/I3, were at approximately 372 and 383 nm, respectively. PS80 CMC was determined using a sigmoidal non-linear variable slope regression performed using GraphPad Prism version 8.0.2 for windows (GraphPad Software, San Diego, CA, USA). CMC was considered as the abscissa of the point at which the top of the sigmoid and the tangent to the inflection point crossed.

[2] = design: method as in doi:10.1007/s11743-000-0113-4; settings: surface tension measurement; cited from earlier work
[3] = design: method as in earlier work; settings: fluorescence-based method using pyrene-3-carboxaldehyde; cited from earlier work
[4] = Differential scanning calorimetry of travoprost:excipient blends; format: physicochemical
Procedure: The differential scanning calorimetry (DSC) studies were performed using a DSC 3 thermal analysis device (Mettler-Toledo GmbH, Greinfensee, Switzerland) calibrated upstream with high-purity zinc (99.99%, Tfus = 419.6 ± 0.7 °C, ΔfusH = 107.5 ± 3.2 J.g^−1), high-purity indium (99.99%, Tfus = 156.6 ± 0.3 °C, ΔfusH = 28.45 ± 0.60 J.g^−1) and controlled with both, and Milli-Q water (Merck Millipore, Burlington, MA, USA). Each sample was introduced in a 100 µL aluminum pan which was hermetically sealed afterwards. The conditions of the sample preparation, as well as the applied temperature program, were strictly identical to avoid any thermal history dependence of the samples. The cycle, performed twice on each sample, was freezing from ambient temperature to −80 °C at a rate of 5 °C/min, then holding for 3 min at −80 °C, then heating to 25 °C, at a rate of 5 °C/min under a 60 mL/min dry air flow. Travoprost, NaHA and PS80 were analyzed either alone or as binary drug:excipient blends at different weight ratios (1:3, 1:1 and 3:1, respectively). Measurements were performed on 3 independent samples (n = 3). Thermogram evaluation was performed using STARe version 16.30 (Mettler-Toledo GmbH, Greinfensee, Switzerland).

[5] = design: method as in doi:10.1002/etc.5620171002; settings: cited from earlier work
[6] = Travoprost:Excipient mass ratio 1:0 (travoprost alone), n = 3
[7] = Travoprost:Polysorbate 80 mass ratio 1:1
[8] = Travoprost:Polysorbate 80 mass ratio 1:3
[9] = Travoprost:Polysorbate 80 mass ratio 3:1
[10] = Travoprost:Sodium Hyaluronate mass ratio 1:1
[11] = Travoprost:Sodium Hyaluronate mass ratio 1:3
[12] = Travoprost:Sodium Hyaluronate mass ratio 3:1

In the case of Polysorbate 80 [PS80], the “I1/I3 fluorescence ratio of pyrene with increasing excipient concentration” value [1] is listed as “decrease”, the CMC [2] is listed as 0.018 mM and the CMC [3] is listed as 0.015 mM.

With `CC(C)OC(=O)CCC/C=C\C[C@@H]1[C@@H](/C=C/[C@@H](O)COc2cccc(C(F)(F)F)c2)[C@H](O)C[C@@H]1O` [Travoprost] the Tg [4, 6] was −21.9 ± 0.6 °C, the “ΔCp normalized to travoprost content” value [4, 6] was −0.57 ± 0.05 J/g/K and the Tg ([4]; Travoprost:Excipient mass ratio 1:0 (travoprost alone), n = 3, listed as travoprost) was “around −22 °C”. For the same compound, the Tg [4, 7] was −54.4 ± 0.6 °C, the “ΔCp normalized to travoprost content” value [4, 7] was −2.04 ± 0.06 J/g/K and the Tg [4, 8] was −58.8 ± 0.7 °C. For the same compound, the “ΔCp normalized to travoprost content” value [4, 8] was −2.96 ± 0.07 J/g/K, the Tg [4, 9] was −44.2 ± 0.7 °C and the “ΔCp normalized to travoprost content” value [4, 9] was −1.32 ± 0.06 J/g/K. For the same compound, the Tg [4, 10] was −21.4 ± 0.6 °C, the “ΔCp normalized to travoprost content” value [4, 10] was −0.60 ± 0.05 J/g/K and the Tg [4, 11] was −22.3 ± 0.7 °C. The “ΔCp normalized to travoprost content” value [4, 11] was −0.55 ± 0.05 J/g/K, the Tg [4, 12] was −20.3 ± 0.6 °C and the “ΔCp normalized to travoprost content” value [4, 12] was −0.58 ± 0.06 J/g/K. For the same compound, the “shift in the Tg” value ([4]; in presence of PS80, when increasing the excipient content) was −22 to −58 °C.

In the case of `c1cc2ccc3cccc4ccc(c1)c2c34` [pyrene, Pyrene], the LogP [5] is listed as 6.0.

Source: article PMC8877962, “New Preservative-Free Formulation for the Enhanced Ocular Bioavailability of Prostaglandin Analogues in Glaucoma” (Pharmaceutics, 2022)
